The subject of one data set is IL-2. Description: CD3 and CD28 Activation of Peripheral Blood T Cells and Determination of Secreted IL-2 Levels (C28 HU Assay). In kind it is cell-based, Human. To be noted: PBMC stimulated with anti-CD3 and anti CD28 mAbs, 24 hour; for IC50: IL-2 secretion; for inhibition at 1 µM: concentration 1 μM (in c2). The protocol:
Human peripheral blood mononuclear cells were cultured in RPMI 1640 medium supplemented with 10 μg/ml gentamicin, 50 μM 2-mercaptoethanol, 1X MEM non-essential amino acids (Sigma Chemical Co., St. Louis, Mo.), 100 U/ml sodium penicillin G, 100 μg/ml streptomycin sulfate, 2 mM L-glutamine, 1 mM sodium pyruvate (Life Technologies, Grand Island, N.Y.) and 10% fetal bovine serum (Hyclone, Logan, Utah) at 37° C. with 5% CO2.
Human peripheral blood mononuclear cells (PBMC) were isolated by Ficoll-Hypaque seperation. PBMCs were stimulated with a combination of immobilized anti-CD3 and soluble anti CD28 mAbs as described in Faltynek, et al. J. Enzyme Inhibition 1995, 9, 111-122, hereby incorporated by reference. Following a 24 hour incubation, cell supernatants were harvested and IL-2 levels were determined. 100 μl of 5 μg/ml monoclonal murine anti-human IL-2 antibody (Biosource International) in D-PBS was added to 96 well Maxisorb plates (Nunc) and incubated at 4° C. overnight. Plates were washed 4 times with D-PBS containing 0.05% Tween 20 (wash buffer) and blocked with D-PBS containing 1% BSA and 10 mM NaN3 (Diluent/Blocking buffer) for 1-3 hours at room temperature or overnight at 4° C. Plates were washed and recombinant human IL-2 diluted (at 10,000, 5,000, 2,500, 1,250, 625, 312.5, 156.25, 78, 39, 20 pg/ml) in diluent/blocking buffer containing a matched percentage of complete RPMI 1640 medium as the unknown samples. Tissue culture supernatant at various dilutions were added in triplicate at 100 μl/well. Plates were incubated for 2 hours at room temperature and washed 4 times with wash buffer. 100 pl of rabbit anti-human IL-2 (10 μg/ml, Genzyme) was added and incubated for 1 hour at room temperature. The incubation was followed by 4 washes and subsequent addition of 100 pl of 1:2000 dilution of alkaline phosphatase-conjugated goat anti-rabbit F(ab′)2 (Biosource International). After 1 hour the plates were washed 4 times and 100 μl of pNPP (Southern Biotech or Sigma) at 1 mg/ml in buffer was added. Color development was allowed to proceed at room temperature for 20 minutes before addition of 50 μl of 2 N NaOH. Absorbance at 405 nm was determined using a plate reader (Molecular Devices). IL-2 concentrations were calcualted using SoftMax (Molecular Devices) based on the IL-2 standard solutions.

The test system of data set [1] is Human peripheral blood mononuclear cells. Description: Human Concanavalin-A Proliferation Assay (Con HU Assay). Format: cell-based. The conditions noted are these: Homo sapiens, PBMC, concanavalin-A stimulated human PBMC; for inhibition at 100 µM / inhibition at 10 µM / inhibition at 1 µM: 72 h, 3 days, read-out: % Inhibition of proliferation (at concentrations of 1,10, or 100 μm); for inhibition at 100 µM: concentration 100 μm (in parentheses in the cell); for IC50: tritiated thymidine; for inhibition at 10 µM: concentration 10 μm (in parentheses in the cell); for inhibition at 1 µM: concentration 1 μm (in parentheses in the cell). The method, boiled down:
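Proliferation read as tritiated thymidine uptake (0.5 μCi/well, 6 h pulse on day 3) in human PBMC cultured 3 days with 2.5 μg/ml (final) concanavalin-A. Cells, 50,000 per well in supplemented RPMI 1640 with 10% FBS, received compound 15 min before mitogen.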

[2] abbreviates: Homo sapiens, read-out: % Inhibition of IL-2 secretion (At concentrations of 1, 10, or 100 μM).

One may read the IC50 as the concentration that inhibits the measured activity by half. With `O=C(Nc1ccc(-n2nc(C(F)(F)F)cc2C(F)(F)F)cc1)C12CC3CC(CC(C3)C1)C2` [Example 62], the IC50 in the data set on IL-2 came to 5040 nM.
Regarding `CC(C)(Oc1ccc(Cl)cc1)C(=O)Nc1ccc(-n2nc(C(F)(F)F)cc2C(F)(F)F)cc1` [Example 155, N-[4-[3,5-bis(trifluoromethyl)-1H-pyrazol-1-yl]phenyl]-2-(4-chlorophenoxy)-2-methylpropanamide], the inhibition at 1 µM with IL-2 (setting [2]) was 8%.
For orientation: melting point means the temperature, or range, at which the solid turns liquid. Consider `O=C(Nc1ccc(-n2nc(C(F)(F)F)cc2C(F)(F)F)cc1)c1ccco1` [Example 113, N-[4-[3,5-bis(trifluoromethyl)-1H-pyrazol-1-yl]phenyl]-2-furancarboxamide], for which the melting point is 179 to 182 °C. Besides, the inhibition at 1 µM with IL-2 (setting [2]) came out at 19%.
For `Cc1nnsc1C(=O)Nc1ccc(-n2nccc2C)cc1` [Example 285, 4-Methyl-N-[4-(5-methyl-1H-pyrazol-1-yl)phenyl]-1,2,3-thiadiazole-5-carboxamide], the melting point is 163 to 164 °C. The inhibition at 1 µM in the data set on IL-2 (setting [2]) amounted to 26%.
On the same counts, the results for `O=C(Nc1ccc(-n2nc(C(F)(F)F)cc2C(F)(F)F)cc1)c1cccs1` [Example 131, N-[4-[3,5-bis(trifluoromethyl)-1H-pyrazol-1-yl]phenyl]-2-thiophenecarboxamide] are more than 230 °C and 32%.
Taken in the same sequence, the figures for `CCCCC(CC)C(=O)Nc1ccc(-n2nc(C(F)(F)F)cc2C(F)(F)F)cc1` (centres unmarked) [Example 72, N-[4-[3,5-bis(trifluoromethyl)-1H-pyrazol-1-yl]phenyl]-2-ethylhexanamide] were 127 to 128 °C and 11%.
On the same counts, the results for `O=C(Nc1ccc(-n2nc(C(F)(F)F)cc2C(F)(F)F)cc1)c1ccc(Oc2cc(Cl)cc(Cl)c2)o1` [Example 8, N-[4-[3,5-bis(trifluoromethyl)-1H-pyrazol-1-yl]phenyl]-5-(3,5-dichlorophenoxy)-2-furancarboxamide] are 152 to 153 °C and 20%.
On to `Cc1c(Cl)cccc1NC(=O)Nc1ccc(-n2nc(C(F)(F)F)cc2C(F)(F)F)cc1` [Example 38, N-[4-[3,5-bis(trifluoromethyl)-1H-pyrazol-1-yl]phenyl]-N′-(3-chloro-2-methylphenyl)urea], for which the melting point was 193 to 196 °C. The inhibition at 1 µM in the data set with IL-2 (setting [2]) was 16%.
On the same counts, the results for `CCCCCCCNC(=O)Nc1ccc(-n2nc(C(F)(F)F)cc2C(F)(F)F)cc1` [Example 47, N-[4-[3,5-bis(trifluoromethyl)-1H-pyrazol-1-yl]phenyl]-N′-heptylurea] are 129 to 130 °C and 2%.
Take `O=C(Nc1ccc(-n2nc(C(F)(F)F)cc2C(F)(F)F)cc1)C1CCc2ccccc2C1` (centres unmarked) [Example 153, N-[4-[3,5-bis(trifluoromethyl)-1H-pyrazol-1-yl]phenyl]-1,2,3,4-tetrahydro-2-naphthalenecarboxamide]: the melting point was 199 to 201 °C. Moreover, the half-maximal inhibitory concentration (IC50) in the data set with IL-2 (Homo sapiens) stood at 457 nM. Moreover, the inhibition at 100 µM in the data set on IL-2 (Homo sapiens, concentration 100 μM (in c2), read-out: % Inhibition of IL-2 secretion (At concentrations of 1, 10, or 100 μM)) is 94%.
Compound `O=C(CCC1CCCC1)Nc1ccc(-n2nc(C(F)(F)F)cc2C(F)(F)F)cc1` [Example 99, N-[4-[3,5-bis(trifluoromethyl)-1H-pyrazol-1-yl]phenyl]cyclopentanepropanamide] registered a melting point of 130 to 132 °C. Further, in the data set on IL-2 (setting [2]), the inhibition at 1 µM was determined as 9%.
Taken in the same sequence, the figures for `O=C(Nc1ccccc1)Nc1ccc(-n2nc(C(F)(F)F)cc2C(F)(F)F)cc1` [Example 36, N-[4-[3,5-bis(trifluoromethyl)-1H-pyrazol-1-yl]phenyl]-N′-phenylurea] were 185 to 187 °C and 10%.
On the same counts, the results for `Cc1noc(C)c1C(=O)Nc1ccc(-n2nccc2C)cc1` [Example 286, 3,5-dimethyl-N-[4-(5-methyl-1H-pyrazol-1-yl)phenyl]-4-isoxazolecarboxamide] are 151 to 152 °C and 2%.
As to `O=C(Nc1ccc(-n2nc(C(F)(F)F)cc2C(F)(F)F)cc1)Nc1ccc(C(F)(F)F)cc1` [Example 33, N-[4-[3,5-bis(trifluoromethyl)-1H-pyrazol-1-yl]phenyl]-N′-[4-(trifluoromethyl)phenyl]urea], the inhibition at 1 µM in the data set with IL-2 (setting [2]) worked out at 6%.
Still for that read-out and setting: next, `O=C(Nc1ccc(-n2nc(C(F)(F)F)cc2C(F)(F)F)cc1)c1cnnc2ccccc12` [Example 118, N-[4-[3,5-bis(trifluoromethyl)-1H-pyrazol-1-yl]phenyl]-4-cinnolinecarboxamide]: 27%.
In turn, `Cc1ccc(C(=O)Nc2ccc(-n3nc(C(F)(F)F)cc3C(F)(F)F)cc2)c(Cl)n1` [Example 151, N-[4-[3,5-bis(trifluoromethyl)-1H-pyrazol-1-yl]phenyl]-2-chloro-6-methyl-3-pyridinecarboxamide] showed a melting point of 155 to 156 °C. Further, in data set [1], the inhibition at 100 µM turned out to be 99% and 295 nM corresponded to half-maximal inhibition (IC50).
`CS(=O)(=O)c1cccc(C(=O)Nc2ccc(-n3nc(C(F)(F)F)cc3C(F)(F)F)cc2)c1` [Example 126, N-[4-[3,5-bis(trifluoromethyl)-1H-pyrazol-1-yl]phenyl]-3-(methylsulfonyl)benzamide] displayed a melting point of 194 to 195 °C. For the same compound, in data set [1], the inhibition at 10 µM is 79% and half-maximal inhibition (IC50) was put at 4910 nM.
With `O=C(Nc1ccc(F)cc1)c1ccc(-n2nc(C(F)(F)F)cc2C(F)(F)F)cc1` [Example 30, 4-[3,5-bis(trifluoromethyl)-1H-pyrazol-1-yl]-N-(4-fluorophenyl)benzamide], the melting point is 194 to 195 °C. For the same compound, the inhibition at 1 µM in data set [1] came to 6%.
`Cc1cccc(C(=O)Nc2ccc(-n3nc(C(F)(F)F)cc3C(F)(F)F)cc2)c1` [Example 75, N-[4-[3,5-bis(trifluoromethyl)-1H-pyrazol-1-yl]phenyl]-3-methylbenzamide] displayed a melting point of 137 to 139 °C. In addition, in data set [1], the inhibition at 100 µM worked out at 100% and the IC50 was found to be 368 nM.
As to `O=C(Nc1ccc(-n2nc(C(F)(F)F)cc2C(F)(F)F)cc1)c1cc2ccccc2o1` [Example 19, N-[4-[3,5-bis(trifluoromethyl)-1H-pyrazol-1-yl]phenyl]-2-benzofurancarboxamide], the melting point was 213 to 215 °C. Besides, the inhibition at 1 µM in data set [1] is 9%.
`O=C(Nc1ccc(-n2nc(C(F)(F)F)cc2C(F)(F)F)cc1)c1cccnc1F` [Example 164, N-[4-[3,5-bis(trifluoromethyl)-1H-pyrazol-1-yl]phenyl]-2-fluoro-3-pyridinecarboxamide] returned a melting point of 110 to 112 °C. In data set [1], the inhibition at 10 µM was found to be 99% and the IC50 was 39 nM.
Compound `N#Cc1cc(C(F)(F)F)nn1-c1ccc(NC(=O)c2ccccc2Cl)cc1` [Example 350, 2-chloro-N-(4-(5-cyano-3-(trifluoromethyl)-1H-pyrazol-1-yl)phenyl)benzamide] returned a melting point of 162 to 163 °C. This compound gave an IC50 in data set [1] of 240 nM.
In the case of `O=C(Nc1ccc(-n2nc(C(F)(F)F)cc2OC(F)F)cc1)c1ccncc1F` [Example 327, N-(4-(5-(difluoromethoxy)-3-(trifluoromethyl)-1H-pyrazol-1-yl)phenyl)-3-fluoroisonicotinamide], the melting point lay in the range of 135 to 136 °C. Besides, inhibition in data set [1] was half-maximal at 82 nM (IC50).

(Values after patent US20010044445A1, “AZOLE INHIBITORS OF CYTOKINE PRODUCTION” (priority 1999, published 2001).)
